Measured values published in EP0535241A1, “NOVEL LEUCINE AMINOPEPTIDASE” (SUNTORY LIMITED, priority 1991, dated 1992).

Molecular target: T1, leucine aminopeptidase of human placenta origin (PLAP), purified from human retroplacental sera, containing SEQ ID NOs: 1, 2, 3 and 4 (Homo sapiens, UniProt Q9UIQ6)
T1 construct: PLAP was purified by fractionating 900 ml of retroplacental sera by ammonium sulfate fractionation; from tissue; host or cells: human retroplacental sera
Test: PLAP enzyme assay with L-leucyl-P-nitroanilide as substrate (Lineweaver-Burk plot)
Assay type: biochemical
Experimental: An assay of PLAP was carried out according to a method of Kurauchi et al. (Kurauchi, O. et al. Enzyme, 35, p197-205, 1986) using L-leucyl-P-nitroanilide as a substrate. Namely, a substrate adjusted to 1.6 mM of a final concentration was added to a 20 mM Tris-HCl buffer (pH 7.2) (1.0 ml) in the presence of a 20 mM L-methionine, and the mixture was incubated at 37°C for 10 minutes. After finishing the reaction, 3.0 ml of a 1M acetate buffer (pH 4.2) was added to terminate the reaction, and the amount of released P-nitroanilide was measured by absorption of 405 nm. One unit of the enzyme is defined as an activity of the enzyme that releases 1 µ mole of the P-nitroanilide for one minute.

[1] = purified PLAP, calculated according to Lineweaver-Burk plot, 20 mM Tris-HCl buffer (pH 7.2), 37°C

T1 sequence (Q9UIQ6 155-1025 limits assumed): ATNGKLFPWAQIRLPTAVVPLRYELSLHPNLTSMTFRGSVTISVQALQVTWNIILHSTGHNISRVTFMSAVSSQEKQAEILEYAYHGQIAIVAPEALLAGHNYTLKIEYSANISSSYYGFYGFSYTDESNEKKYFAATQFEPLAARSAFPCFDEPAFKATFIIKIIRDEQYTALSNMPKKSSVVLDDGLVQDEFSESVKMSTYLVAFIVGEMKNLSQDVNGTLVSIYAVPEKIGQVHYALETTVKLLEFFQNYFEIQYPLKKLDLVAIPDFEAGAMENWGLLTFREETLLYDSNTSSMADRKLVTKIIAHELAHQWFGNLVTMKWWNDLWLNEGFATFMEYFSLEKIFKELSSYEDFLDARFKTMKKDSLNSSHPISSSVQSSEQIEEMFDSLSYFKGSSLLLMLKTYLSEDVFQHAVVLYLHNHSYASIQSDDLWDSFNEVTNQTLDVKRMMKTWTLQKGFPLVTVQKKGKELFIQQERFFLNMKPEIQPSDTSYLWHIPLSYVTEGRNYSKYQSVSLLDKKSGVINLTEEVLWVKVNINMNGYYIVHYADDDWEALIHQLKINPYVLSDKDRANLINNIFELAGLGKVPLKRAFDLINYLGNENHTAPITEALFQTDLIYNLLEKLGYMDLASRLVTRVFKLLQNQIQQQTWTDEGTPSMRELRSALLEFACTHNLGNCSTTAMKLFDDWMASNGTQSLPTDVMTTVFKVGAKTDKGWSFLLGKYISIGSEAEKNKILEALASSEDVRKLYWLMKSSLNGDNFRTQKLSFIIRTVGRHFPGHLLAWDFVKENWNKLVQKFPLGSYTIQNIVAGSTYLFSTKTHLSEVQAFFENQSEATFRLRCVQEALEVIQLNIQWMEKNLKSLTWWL

SMILES	Km value for degradation of L-Leucyl-P-nitroanilide [1] [mM]	Vmax for degradation of L-Leucyl-P-nitroanilide [1] [µmol/min/g]	inhibition of L-leucyl-P-nitroanilide degrading activity by L-methionine (assay carried out in the presence of 20 mM L-methionine, substrate 1.6 mM)
CC(C)C[C@H](N)C(=O)Nc1ccc([N+](=O)[O-])cc1 [L-Leucyl-P-nitroanilide]	4.17	108	
CSCC[C@H](N)C(=O)O [L-methionine]			not inhibited
